Data from ChEMBL document CHEMBL6083286, “Discovery of ERD-12310A as an Exceptionally Potent and Orally Efficacious PROTAC Degrader of Estrogen Receptor α (ERα)” (J Med Chem, 2024).
pIC50: −log10 of the molar value. Activity calls are given as the source filed them. The calls are words filed in the database; no cut-off is given here.

What was measured:
[1] = Plasma protein binding in mouse; assay type: ADME, cell-free
[2] = Drug concentration in SCID mouse tumor at 30 mg/kg, po administered once daily for 3 days measured after 24 hrs by LC-MS/MS analysis; assay type: ADME, organism-based, Neoplasm; settings: read-out: Ct
[3] = molecular target: Cytochrome P450 2C9 (Homo sapiens, UniProt P11712); assay: Inhibition of CYP2C9 in human liver microsomes incubated for 5 mins in presence of NADPH by LC-MS/MS analysis; assay type: ADME, Microsome
Cytochrome P450 2C9, sequence (P11712 whole entry): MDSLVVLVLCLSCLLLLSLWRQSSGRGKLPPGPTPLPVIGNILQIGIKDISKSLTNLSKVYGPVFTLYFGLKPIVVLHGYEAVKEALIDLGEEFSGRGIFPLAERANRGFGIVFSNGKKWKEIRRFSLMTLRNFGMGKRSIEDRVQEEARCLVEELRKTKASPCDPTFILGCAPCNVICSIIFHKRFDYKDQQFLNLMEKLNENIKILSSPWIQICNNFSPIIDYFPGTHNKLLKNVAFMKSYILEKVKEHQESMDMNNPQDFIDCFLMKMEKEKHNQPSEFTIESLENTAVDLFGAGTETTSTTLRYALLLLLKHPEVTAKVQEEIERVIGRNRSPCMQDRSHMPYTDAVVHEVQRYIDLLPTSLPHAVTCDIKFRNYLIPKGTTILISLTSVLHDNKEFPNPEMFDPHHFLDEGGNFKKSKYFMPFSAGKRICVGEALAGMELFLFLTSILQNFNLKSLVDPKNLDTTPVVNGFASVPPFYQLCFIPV

[4] = AUC (0 to infinity) in dog at 3 mg/kg, po or 1 mg/kg, iv measured upto 24 hrs by LC-MS/MS analysis; assay type: ADME, organism-based, Canis lupus familiaris; settings: in vivo
[5] = Cmax in rat at 3 mg/kg, po or 1 mg/kg, iv measured upto 24 hrs by LC-MS/MS analysis; assay type: ADME, organism-based; settings: in vivo
[6] = Stability in mouse plasma assessed as half life; assay type: ADME, cell-free
[7] = Drug concentration in SCID mouse tumor at 10 mg/kg, po administered once daily measured at 24 hrs by LC-MS/MS analysis; assay type: ADME, organism-based, Neoplasm; settings: read-out: Ct
[8] = Drug concentration in SCID mouse tumor at 10 mg/kg, po administered once daily for 3 days measured after 24 hrs by LC-MS/MS analysis; assay type: ADME, organism-based, Neoplasm
[9] = Cmax in mouse at 3 mg/kg, po or 1 mg/kg, iv measured upto 24 hrs by LC-MS/MS analysis; assay type: ADME, organism-based; settings: in vivo
[10] = molecular target: T1, Protein cereblon/Estrogen receptor (Homo sapiens, UniProt P03372+Q96SW2); assay: In-vivo PROTAC activity at CRBN/ERalpha in SCID mouse xenografted with human MCF7 cells assessed as reduction in ERalpha level in tumor at 30 mg/kg, po administered daily for 3 days and measured after 24 hrs by Western blot analysis; assay type: functional, organism-based; set-up: scale not given: the % may be the effect or the level left; settings: time 96.0 hrs
T1 sequence (P03372 whole entry, looked up): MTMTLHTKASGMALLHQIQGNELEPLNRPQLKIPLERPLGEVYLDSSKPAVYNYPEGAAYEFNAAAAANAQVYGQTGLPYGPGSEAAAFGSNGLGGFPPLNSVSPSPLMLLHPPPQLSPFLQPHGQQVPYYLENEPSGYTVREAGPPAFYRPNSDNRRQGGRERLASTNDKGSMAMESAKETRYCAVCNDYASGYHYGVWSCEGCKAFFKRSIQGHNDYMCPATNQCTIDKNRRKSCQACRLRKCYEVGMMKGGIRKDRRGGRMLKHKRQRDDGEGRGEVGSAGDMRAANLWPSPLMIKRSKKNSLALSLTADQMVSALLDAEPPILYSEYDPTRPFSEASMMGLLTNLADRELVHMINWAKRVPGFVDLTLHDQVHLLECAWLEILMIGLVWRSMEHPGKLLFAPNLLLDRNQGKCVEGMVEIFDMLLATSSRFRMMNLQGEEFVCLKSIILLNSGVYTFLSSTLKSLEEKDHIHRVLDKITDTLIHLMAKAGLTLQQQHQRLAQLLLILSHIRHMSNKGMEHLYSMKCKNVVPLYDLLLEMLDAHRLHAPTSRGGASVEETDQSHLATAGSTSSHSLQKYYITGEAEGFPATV
T1 sequence (Q96SW2 whole entry, looked up): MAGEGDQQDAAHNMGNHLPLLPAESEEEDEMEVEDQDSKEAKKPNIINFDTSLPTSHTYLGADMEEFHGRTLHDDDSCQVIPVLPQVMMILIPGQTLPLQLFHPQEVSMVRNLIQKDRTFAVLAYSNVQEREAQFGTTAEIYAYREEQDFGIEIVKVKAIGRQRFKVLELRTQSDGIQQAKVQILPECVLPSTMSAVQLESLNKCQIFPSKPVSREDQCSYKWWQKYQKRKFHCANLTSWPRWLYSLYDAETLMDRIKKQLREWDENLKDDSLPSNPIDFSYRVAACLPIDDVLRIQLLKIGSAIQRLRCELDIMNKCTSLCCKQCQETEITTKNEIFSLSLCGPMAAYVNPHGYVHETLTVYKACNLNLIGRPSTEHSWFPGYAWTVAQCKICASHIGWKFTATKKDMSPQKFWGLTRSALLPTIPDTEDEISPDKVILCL

[11] = Half life in rat at 3 mg/kg, po or 1 mg/kg, iv measured upto 24 hrs by LC-MS/MS analysis; assay type: ADME, organism-based; settings: in vivo
[12] = Drug concentration in SCID mouse plasma at 30 mg/kg, po administered daily for 3 days and measured after 24 hrs by LC-MS/MS analysis; assay type: ADME, organism-based
[13] = Volume of distribution at steady state in mouse at 3 mg/kg, po or 1 mg/kg, iv measured upto 24 hrs by LC-MS/MS analysis; assay type: ADME, organism-based; settings: in vivo
[14] = molecular target: T1, Protein cereblon/Estrogen receptor; assay: PROTAC activity at CRBN/ERalpha in human MCF7 cells assessed as reduction in ERalpha protein level at 0.3 nM measured at 4 hrs by Western blot analysis; assay type: cell-based
[15] = molecular target: T1, Protein cereblon/Estrogen receptor; assay: PROTAC activity at CRBN/ERalpha in human T47D cells assessed as reduction in ERalpha protein level at 10 nM measured at 4 hrs by Western blot analysis; assay type: cell-based
[16] = Stability in dog plasma assessed as half life; assay type: ADME, cell-free, Canis lupus familiaris
[17] = molecular target: T1, Protein cereblon/Estrogen receptor; assay: PROTAC activity at CRBN/ERalpha in human T47D cells assessed as reduction in ERalpha protein level at 3 nM measured at 4 hrs by Western blot analysis; assay type: cell-based
[18] = molecular target: T1, Protein cereblon/Estrogen receptor; assay: PROTAC activity at CRBN/ERalpha in human MCF7 cells assessed as reduction in ERalpha protein level at 5 nM measured for 4 hrs in presence of PR-171 by Western blot analysis; assay type: cell-based
[19] = molecular target: Cytochrome P450 2C19 (Homo sapiens, UniProt P33261); assay: Inhibition of CYP2C19 in human liver microsomes incubated for 5 mins in presence of NADPH by LC-MS/MS analysis; assay type: ADME, Microsome
Cytochrome P450 2C19, sequence (P33261 whole entry): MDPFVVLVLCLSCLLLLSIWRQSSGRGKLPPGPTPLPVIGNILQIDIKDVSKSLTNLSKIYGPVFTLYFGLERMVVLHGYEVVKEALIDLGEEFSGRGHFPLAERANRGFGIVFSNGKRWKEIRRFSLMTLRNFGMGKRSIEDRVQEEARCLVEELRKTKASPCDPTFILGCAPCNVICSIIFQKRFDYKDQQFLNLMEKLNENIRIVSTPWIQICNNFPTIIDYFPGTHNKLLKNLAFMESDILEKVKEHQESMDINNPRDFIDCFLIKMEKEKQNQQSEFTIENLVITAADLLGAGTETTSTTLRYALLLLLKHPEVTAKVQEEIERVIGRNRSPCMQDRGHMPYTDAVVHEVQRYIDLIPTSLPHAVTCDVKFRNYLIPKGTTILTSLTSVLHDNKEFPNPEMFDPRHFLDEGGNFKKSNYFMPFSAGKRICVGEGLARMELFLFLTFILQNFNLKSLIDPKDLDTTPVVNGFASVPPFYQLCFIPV

[20] = Drug concentration in SCID mouse plasma at 30 mg/kg, po administered once daily for 3 days measured after 24 hrs by LC-MS/MS analysis; assay type: ADME, organism-based
[21] = molecular target: T2, Cytochrome P450 1A2 (Homo sapiens, UniProt P05177); assay: Inhibition of CYP1A2 in human liver microsomes incubated for 5 mins in presence of NADPH by LC-MS/MS analysis; assay type: ADME, Microsome
T2 sequence (P05177 whole entry): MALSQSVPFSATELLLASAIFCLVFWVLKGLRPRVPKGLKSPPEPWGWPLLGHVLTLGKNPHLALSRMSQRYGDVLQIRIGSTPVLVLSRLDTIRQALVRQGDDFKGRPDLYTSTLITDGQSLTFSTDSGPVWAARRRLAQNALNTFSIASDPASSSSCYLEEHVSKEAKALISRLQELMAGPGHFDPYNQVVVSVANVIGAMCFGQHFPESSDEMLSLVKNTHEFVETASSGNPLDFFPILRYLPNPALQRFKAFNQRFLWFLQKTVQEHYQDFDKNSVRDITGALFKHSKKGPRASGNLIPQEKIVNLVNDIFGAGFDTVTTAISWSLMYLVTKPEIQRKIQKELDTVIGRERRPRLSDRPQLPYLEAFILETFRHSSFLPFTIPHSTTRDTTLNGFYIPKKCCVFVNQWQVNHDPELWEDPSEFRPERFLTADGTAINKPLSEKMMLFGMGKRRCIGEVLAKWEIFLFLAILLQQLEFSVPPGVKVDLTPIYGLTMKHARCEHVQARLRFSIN

[22] = molecular target: T1, Protein cereblon/Estrogen receptor; assay: PROTAC activity at CRBN/ERalpha in human MCF7 cells assessed as reduction in ERalpha protein level at 5 nM measured for 4 hrs by Western blot analysis; assay type: cell-based
[23] = Oral bioavailability in mouse at 3 mg/kg measured upto 24 hrs by LC-MS/MS analysis; assay type: ADME, organism-based; settings: in vivo
[24] = Drug concentration in SCID mouse tumor at 10 mg/kg, po administered daily for 3 days and measured after 6 hrs by LC-MS/MS analysis; assay type: ADME, organism-based, Neoplasm; settings: time 3 day, read-out: Ct
[25] = AUC (0 to infinity) in rat at 3 mg/kg, po or 1 mg/kg, iv measured upto 24 hrs by LC-MS/MS analysis; assay type: ADME, organism-based; settings: in vivo
[26] = molecular target: Voltage-gated inwardly rectifying potassium channel KCNH2 (Homo sapiens, UniProt Q12809); assay: Inhibition of hERG in HEK293 cells by whole-cell patch clamp assay; assay type: toxicity, cell-based
Voltage-gated inwardly rectifying potassium channel KCNH2, sequence (Q12809 whole entry): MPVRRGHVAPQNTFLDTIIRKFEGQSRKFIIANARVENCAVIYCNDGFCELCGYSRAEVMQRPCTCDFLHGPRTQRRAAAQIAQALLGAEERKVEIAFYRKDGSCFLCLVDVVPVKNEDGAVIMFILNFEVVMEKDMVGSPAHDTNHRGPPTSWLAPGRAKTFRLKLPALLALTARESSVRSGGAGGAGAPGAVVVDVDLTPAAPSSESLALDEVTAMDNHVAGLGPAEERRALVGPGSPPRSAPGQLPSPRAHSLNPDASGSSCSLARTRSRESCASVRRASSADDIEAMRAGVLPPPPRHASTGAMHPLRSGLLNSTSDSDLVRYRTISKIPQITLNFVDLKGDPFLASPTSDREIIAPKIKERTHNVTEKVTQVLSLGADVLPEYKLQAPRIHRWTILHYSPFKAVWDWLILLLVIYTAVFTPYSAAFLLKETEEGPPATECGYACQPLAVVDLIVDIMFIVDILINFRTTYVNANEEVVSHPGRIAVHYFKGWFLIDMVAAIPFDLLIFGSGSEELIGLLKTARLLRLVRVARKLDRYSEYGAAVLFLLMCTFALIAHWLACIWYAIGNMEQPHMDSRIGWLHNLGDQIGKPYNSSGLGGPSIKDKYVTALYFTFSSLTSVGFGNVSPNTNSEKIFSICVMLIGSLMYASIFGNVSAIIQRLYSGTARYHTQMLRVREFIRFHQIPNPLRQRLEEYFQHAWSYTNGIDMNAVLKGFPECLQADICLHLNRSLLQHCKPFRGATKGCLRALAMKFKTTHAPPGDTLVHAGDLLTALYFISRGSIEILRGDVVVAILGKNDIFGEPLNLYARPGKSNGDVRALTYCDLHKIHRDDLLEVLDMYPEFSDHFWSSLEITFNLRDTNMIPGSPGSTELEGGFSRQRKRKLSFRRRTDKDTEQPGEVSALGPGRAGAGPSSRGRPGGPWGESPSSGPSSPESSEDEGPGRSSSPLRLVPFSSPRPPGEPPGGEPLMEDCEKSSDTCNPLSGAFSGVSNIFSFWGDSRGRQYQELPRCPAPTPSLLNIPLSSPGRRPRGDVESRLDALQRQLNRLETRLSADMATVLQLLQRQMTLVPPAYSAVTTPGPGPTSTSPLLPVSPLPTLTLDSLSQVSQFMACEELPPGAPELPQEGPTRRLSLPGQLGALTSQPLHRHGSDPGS

[27] = Metabolic stability mouse liver microsome assessed as half life; assay type: ADME; settings: microsomes
[28] = molecular target: T1, Protein cereblon/Estrogen receptor; assay: PROTAC activity at CRBN/ERalpha in human MCF7 cells assessed as reduction in ERalpha protein level at 5 nM measured for 4 hrs in presence of lasofoxifene by Western blot analysis; assay type: cell-based
[29] = molecular target: T1, Protein cereblon/Estrogen receptor; assay: PROTAC activity at CRBN/ERalpha in human MCF7 cells assessed as reduction in ERalpha protein level at 5 nM measured for 4 hrs in presence of cereblon ligand C1 by Western blot analysis; assay type: cell-based
[30] = molecular target: Cytochrome P450 3A4 (Homo sapiens, UniProt P08684); assay: Inhibition of CYP3A4 in human liver microsomes using testosterone as substrate preincubated for 5 mins followed by NADPH addition and measured after 10 mins by LC-MS/MS analysis; assay type: ADME, Microsome
Cytochrome P450 3A4, sequence (P08684 whole entry): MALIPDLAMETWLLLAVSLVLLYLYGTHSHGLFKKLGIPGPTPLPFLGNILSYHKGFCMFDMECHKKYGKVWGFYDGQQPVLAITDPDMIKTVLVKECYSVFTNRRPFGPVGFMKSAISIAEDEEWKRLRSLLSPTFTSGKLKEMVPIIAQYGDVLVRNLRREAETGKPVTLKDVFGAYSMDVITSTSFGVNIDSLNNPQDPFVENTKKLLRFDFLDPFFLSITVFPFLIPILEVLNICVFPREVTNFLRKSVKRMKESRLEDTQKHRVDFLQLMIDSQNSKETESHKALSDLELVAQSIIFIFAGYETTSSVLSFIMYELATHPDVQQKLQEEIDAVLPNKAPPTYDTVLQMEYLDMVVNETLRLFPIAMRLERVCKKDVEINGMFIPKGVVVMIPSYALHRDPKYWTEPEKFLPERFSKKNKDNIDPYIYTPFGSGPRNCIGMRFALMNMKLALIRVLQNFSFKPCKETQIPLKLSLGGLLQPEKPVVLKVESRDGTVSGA

[31] = molecular target: Cytochrome P450 2D6 (Homo sapiens, UniProt P10635); assay: Inhibition of CYP2D6 in human liver microsomes incubated for 5 mins in presence of NADPH by LC-MS/MS analysis; assay type: ADME, Microsome
Cytochrome P450 2D6, sequence (P10635 whole entry): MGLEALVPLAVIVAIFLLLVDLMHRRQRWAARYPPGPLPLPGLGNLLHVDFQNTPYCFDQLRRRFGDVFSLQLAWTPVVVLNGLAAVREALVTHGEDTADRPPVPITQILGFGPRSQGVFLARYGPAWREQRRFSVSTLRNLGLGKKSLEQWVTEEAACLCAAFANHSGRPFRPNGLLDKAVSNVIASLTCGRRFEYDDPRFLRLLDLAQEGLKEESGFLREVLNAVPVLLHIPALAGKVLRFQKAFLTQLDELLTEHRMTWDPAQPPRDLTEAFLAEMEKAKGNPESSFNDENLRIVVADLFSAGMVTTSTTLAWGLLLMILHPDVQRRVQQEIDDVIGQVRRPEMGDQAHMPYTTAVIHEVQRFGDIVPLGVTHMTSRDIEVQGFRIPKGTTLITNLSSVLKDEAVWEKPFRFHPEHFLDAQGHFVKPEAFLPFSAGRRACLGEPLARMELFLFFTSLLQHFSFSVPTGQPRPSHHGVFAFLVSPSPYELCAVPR

[32] = Toxicity in SCID mouse implanted with human MCF7 cells ESR1 Y537S mutant assessed as change in body weight at 3 to 30 mg/kg, po administered 5 days a week for 7 weeks; assay type: organism-based; settings: in vivo, 1176 h, dose 3-30 mg/kg

O=C1CC[C@H](N2Cc3c(ccc4c3OCC43CCN(C[C@@H]4CCC5(CCN(c6ccc([C@@H]7c8ccc(O)cc8CC[C@@H]7c7ccccc7)cc6)CC5)OC4)CC3)C2=O)C(=O)N1
PPB [1]: 99%
concentration at 96 h [2]: 1030 ng/mL
pIC50 [3]: < 5.00
AUC(0-inf) [4]: 15500 ng·h/mL
Cmax [5]: 57.7 ng/mL
t1/2 [6]: > 4 h
concentration at 24 h [7]: 94 ng/mL
concentration at 96 h [8]: 294 ng/mL
Cmax [9]: 58.6 ng/mL
Activity [10]: 29%
t1/2 [11]: 5.6 h
concentration at 96 h [12]: 50 ng/mL
Vdss [13]: 5.8 L/kg
Activity [14]: Active
Activity [15]: Active
t1/2 [16]: > 4 h
Activity [17]: Active
Activity [18]: inactive
pIC50 [19]: 5.22
concentration at 96 h [20]: 72 ng/mL
pIC50 [21]: < 5.00
Activity [22]: Active
F [23]: 37%
concentration at 72 h [24]: 975 ng/mL
AUC [25]: 583 ng·h/mL
pIC50 [26]: < 5.00
t1/2 [27]: > 1 h
Activity [28]: inactive
Activity [29]: inactive
pIC50 [30]: < 5.00
pIC50 [31]: < 5.00
Activity [32]: Non-toxic
